Target: IDO1 (Homo sapiens, UniProt P14902)
Assay: IDO1 Cellular Assay in HeLa Cells Stimulated with IFNγ
Format: cell-based
Conditions: read-out: HeLa Cell Potency, IC50

IDO1, sequence (P14902 whole entry): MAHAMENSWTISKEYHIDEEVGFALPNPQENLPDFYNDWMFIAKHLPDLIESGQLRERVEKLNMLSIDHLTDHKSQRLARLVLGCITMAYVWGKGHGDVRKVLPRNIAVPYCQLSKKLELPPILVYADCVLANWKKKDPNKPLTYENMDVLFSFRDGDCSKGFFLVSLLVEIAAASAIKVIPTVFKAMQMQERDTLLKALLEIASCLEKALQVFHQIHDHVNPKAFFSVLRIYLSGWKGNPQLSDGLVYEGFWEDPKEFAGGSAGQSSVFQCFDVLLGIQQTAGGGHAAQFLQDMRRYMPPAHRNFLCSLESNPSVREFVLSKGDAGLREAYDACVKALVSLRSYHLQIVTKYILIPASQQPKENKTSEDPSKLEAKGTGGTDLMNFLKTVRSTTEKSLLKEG

IC50 [nM] | Compound
75 | Cc1cccc(N2CCN(C(=O)Cn3nc(C(=O)N4CCCC5(CCNC5=O)C4)c4c3CCC4)CC2)c1C (stereo not shown) [Example 193, 7-(1-{2-[4-(2,3-dimethylphenyl)piperazin-1-yl]-2-oxoethyl}-1,4,5,6-tetrahydrocyclopenta[c]pyrazole-3-carbonyl)-2,7-diazaspiro[4.5]decan-1-one]
40 | CC(=O)NC1CCN(C(=O)c2nn(CC(=O)N3CCN(c4cccc(C)c4C)CC3)c3c2CCC3)C1 (stereo not shown) [Example 194, N-[1-(1-{2-[4-(2,3-dimethylphenyl)piperazin-1-yl]-2-oxoethyl}-1,4,5,6-tetrahydrocyclopenta[c]pyrazole-3-carbonyl)pyrrolidin-3-yl]acetamide]
189 | Cc1cccc(N2CCN(C(=O)Cn3nc(C(=O)N4CCNCC4)c4c3CCC4)CC2)c1C [Example 195, 1-[4-(2,3-dimethylphenyl)piperazin-1-yl]-2-[3-(piperazin-1-carbonyl)-5,6-dihydrocyclopenta[c]pyrazol-1(4H)-yl]ethan-1-one]
103 | Cc1cccc(N2CCN(C(=O)Cn3nc(C(=O)N4CC5C(N)C5C4)c4c3CCC4)CC2)c1C (stereo not shown) [Example 196, 2-[3-(6-amino-3-azabicyclo[3.1.0]hexane-3-carbonyl)-5,6-dihydrocyclopenta[c]pyrazol-1(4H)-yl]-1-[4-(2,3-dimethylphenyl)piperazin-1-yl]ethan-1-one]
11.4 | Cc1cccc(N2CCN(C(=O)Cn3nc(C(=O)N4C[C@@H](C)N[C@@H](C)C4)c4c3CCC4)CC2)c1C [Example 197, 1-[4-(2,3-dimethylphenyl)piperazin-1-yl]-2-{3-[(3R,5S)-3,5-dimethylpiperazine-1-carbonyl]-5,6-dihydrocyclopenta[c]pyrazol-1(4H)-yl}ethan-1-one]
89.6 | Cc1cccc(N2CCN(C(=O)Cn3nc(C(=O)N4CC[C@@H](N)[C@@H](C)C4)c4c3CCC4)CC2)c1C [Example 198, 2-{3-[(3S,4R)-4-amino-3-methylpiperidine-1-carbonyl]-5,6-dihydrocyclopenta[c]pyrazol-1(4H)-yl}-1-[4-(2,3-dimethylphenyl)piperazin-1-yl]ethan-1-one]
19 | Cc1cccc(N2CCN(C(=O)Cn3nc(C(=O)N4CC5CNC5C4)c4c3CCC4)CC2)c1C (stereo not shown) [Example 199, 2-[3-(3,6-diazaspiro[3.2.0]heptane-3-carbonyl)-5,6-dihydrocyclopenta[c]pyrazol-1(4H)-yl]-1-[4-(2,3-dimethylphenyl)piperazin-1-yl]ethan-1-one]
26.6 | Cc1cccc(N2CCN(C(=O)Cn3nc(C(=O)N4CCC(N)CC4)c4c3CCC4)CC2)c1C [Example 200, 2-[3-(4-aminopiperidine-1-carbonyl)-5,6-dihydrocyclopenta[c]pyrazol-1(4H)-yl]-1-[4-(2,3-dimethylphenyl)piperazin-1-yl]ethan-1-one]
13.1 | Cc1cccc(N2CCN(C(=O)Cn3nc(C(=O)N4CC[C@@H](F)[C@@H](O)C4)c4c3CCC4)CC2)c1C [Example 204, 1-[4-(2,3-dimethylphenyl)piperazin-1-yl]-2-[3-[(3S,4R)-4-fluoro-3-hydroxy-piperidine-1-carbonyl]-5,6-dihydro-4H-cyclopenta[c]pyrazol-1-yl]ethanone]
17.1 | Cc1cccc(N2CCN(C(=O)Cn3nc(C(=O)N4CCC(O)C(F)(F)C4)c4c3CCC4)CC2)c1C (stereo not shown) [Example 205, 2-[3-(3,3-difluoro-4-hydroxy-piperidine-1-carbonyl)-5,6-dihydro-4H-cyclopenta[c]pyrazol-1-yl]-1-[4-(2,3-dimethylphenyl)piperazin-1-yl]ethanone]
28 | Cc1cccc(N2CCN(C(=O)Cn3nc(C(=O)N4CC[C@@H](N)[C@H](F)C4)c4c3CCC4)CC2)c1C [Example 207, [(3R,4R)-1-[1-[2-[4-(2,3-dimethylphenyl)piperazin-1-yl]-2-oxo-ethyl]-5,6-dihydro-4H-cyclopenta[c]pyrazole-3-carbonyl]-3-fluoro-4-piperidyl]ammonium;formate]
72.1 | Cc1cccc(N2CCN(C(=O)Cn3nc(C(=O)N4CC[C@H](N)[C@H](F)C4)c4c3CCC4)CC2)c1C [Example 211, [(3R,4S)-1-[1-[2-[4-(2,3-dimethylphenyl)piperazin-1-yl]-2-oxo-ethyl]-5,6-dihydro-4H-cyclopenta[c]pyrazole-3-carbonyl]-3-fluoro-4-piperidyl]ammonium;formate]
79.9 | Cc1cccc(N2CCN(C(=O)Cn3nc(C(=O)N4CCC(F)(F)C(O)C4)c4c3CCC4)CC2)c1C (stereo not shown) [Example 212, 2-[3-(4,4-difluoro-3-hydroxy-piperidine-1-carbonyl)-5,6-dihydro-4H-cyclopenta[c]pyrazol-1-yl]-1-[4-(2,3-dimethylphenyl)piperazin-1-yl]ethanone]
105 | Cc1cccc(N2CCN(C(=O)Cn3nc(C(=O)N4CC[C@@H](N)[C@@H](F)C4)c4c3CCC4)CC2)c1C [Example 214, [(3S,4R)-1-[1-[2-[4-(2,3-dimethylphenyl)piperazin-1-yl]-2-oxo-ethyl]-5,6-dihydro-4H-cyclopenta[c]pyrazole-3-carbonyl]-3-fluoro-4-piperidyl]ammonium;formate]
1.38 | Cc1cccc(N2CCN(C(=O)Cn3nc(C(=O)N4CCCCC45CC5)c4c3C[C@H]3C[C@@H]43)CC2)c1C [Example 215, 2-[(3bR,4aSR)-3-(4-azaspiro[2.5]octane-4-carbonyl)-3b,4,4a,5-tetrahydro-1H-cyclopropa[3,4]cyclopenta[1,2-c]pyrazol-1-yl]-1-[4-(2,3-dimethylphenyl)piperazin-1-yl]ethan-1-one]
7.25 | Cc1cccc(N2CCN(C(=O)Cn3nc(C(=O)N4CCC(O)CC4(C)C)c4c3C[C@H]3C[C@@H]43)CC2)c1C (stereo partly drawn) [Example 216, 1-[4-(2,3-dimethylphenyl)piperazin-1-yl]-2-[(3bR,4aR)-3-(4-hydroxy-2,2-dimethylpiperidine-1-carbonyl)-3b,4,4a,5-tetrahydro-1H-cyclopropa[3,4]cyclopenta[1,2-c]pyrazol-1-yl]ethan-1-one]
2.1 | CNC(=O)NC1CCN(C(=O)c2nn(CC(=O)N3CCN(c4cccc(C)c4C)CC3)c3c2[C@@H]2C[C@@H]2C3)CC1 [Example 217, 1-(1-((3bR,4aR)-1-(2-(4-(2,3-dimethylphenyl)piperazin-1-yl)-2-oxoethyl)-3b,4,4a,5-tetrahydro-1H-cyclopropa[3,4]cyclopenta[1,2-c]pyrazole-3-carbonyl)piperidin-4-yl)-3-methylurea]
0.64 | Cc1cccc(N2CCN(C(=O)Cn3nc(C(=O)N4CC[C@@H]5[C@H](CCC(=O)N5C)C4)c4c3C[C@H]3C[C@@H]43)CC2)c1C [Example 218, (4aR,8aR)-6-((3bR,4aR)-1-(2-(4-(2,3-dimethylphenyl)piperazin-1-yl)-2-oxoethyl)-3b,4,4a,5-tetrahydro-1H-cyclopropa[3,4]cyclopenta[1,2-c]pyrazole-3-carbonyl)-1-methyloctahydro-1,6-naphthyridin-2(1H)-one]
0.86 | Cc1cccc(N2CCN(C(=O)Cn3nc(C(=O)N4CCC5(CC4)CC(=O)N5)c4c3C[C@H]3C[C@@H]43)CC2)c1C [Example 219, 7-[(3bR,4aR)-1-{2-[4-(2,3-dimethylphenyl)piperazin-1-yl]-2-oxoethyl}-3b,4,4a,5-tetrahydro-1H-cyclopropa[3,4]cyclopenta[1,2-c]pyrazole-3-carbonyl]-1,7-diazaspiro[3.5]nonan-2-one]
1.53 | Cc1cccc(N2CCN(C(=O)Cn3nc(C(=O)N4CCC(C)(C(N)=O)CC4)c4c3C[C@H]3C[C@@H]43)CC2)c1C [Example 220, 1-[(3bR,4aR)-1-{2-[4-(2,3-dimethylphenyl)piperazin-1-yl]-2-oxoethyl}-3b,4,4a,5-tetrahydro-1H-cyclopropa[3,4]cyclopenta[1,2-c]pyrazole-3-carbonyl]-4-methylpiperidine-4-carboxamide]
3.76 | Cc1cccc(N2CCN(C(=O)Cn3nc(C(=O)N4CCC(CO)(CO)CC4)c4c3C[C@H]3C[C@@H]43)CC2)c1C [Example 221, 2-{(3bR,4aR)-3-[4,4-bis(hydroxymethyl)piperidine-1-carbonyl]-3b,4,4a,5-tetrahydro-1H-cyclopropa[3,4]cyclopenta[1,2-c]pyrazol-1-yl}-1-[4-(2,3-dimethylphenyl)piperazin-1-yl]ethan-1-one]
6.23 | Cc1cccc(N2CCN(C(=O)Cn3nc(C(=O)N4CCC(NS(N)(=O)=O)CC4)c4c3C[C@H]3C[C@@H]43)CC2)c1C [Example 222, N-{1-[(3bR,4aR)-1-{2-[4-(2,3-dimethylphenyl)piperazin-1-yl]-2-oxoethyl}-3b,4,4a,5-tetrahydro-1H-cyclopropa[3,4]cyclopenta[1,2-c]pyrazole-3-carbonyl]piperidin-4-yl}sulfuric diamide]
1.49 | Cc1cccc(N2CCN(C(=O)Cn3nc(C(=O)N4CC[C@@H](C#N)C4)c4c3C[C@H]3C[C@@H]43)CC2)c1C [Example 223, (3R)-1-[(3bR,4aR)-1-{2-[4-(2,3-dimethylphenyl)piperazin-1-yl]-2-oxoethyl}-3b,4,4a,5-tetrahydro-1H-cyclopropa[3,4]cyclopenta[1,2-c]pyrazole-3-carbonyl] pyrrolidine-3-carbonitrile]
16.5 | Cc1cccc(N2CCN(C(=O)Cn3nc(C(=O)N4CCCC5(C4)NC(=O)NC5=O)c4c3C[C@H]3C[C@@H]43)CC2)c1C (stereo partly drawn) [Example 224, 7-[(3bR,4aR)-1-{2-[4-(2,3-dimethylphenyl)piperazin-1-yl]-2-oxoethyl}-3b,4,4a,5-tetrahydro-1H-cyclopropa[3,4]cyclopenta[1,2-c]pyrazole-3-carbonyl]-1,3,7-triazaspiro[4.5]decane-2,4-dione]
3.93 | Cc1cccc(N2CCN(C(=O)Cn3nc(C(=O)N4CCCC(N5CCCC5=O)C4)c4c3C[C@H]3C[C@@H]43)CC2)c1C (stereo partly drawn) [Example 225, 1-{1-[(3bR,4aR)-1-{2-[4-(2,3-dimethylphenyl)piperazin-1-yl]-2-oxoethyl}-3b,4,4a,5-tetrahydro-1H-cyclopropa[3,4]cyclopenta[1,2-c]pyrazole-3-carbonyl]piperidin-3-yl}pyrrolidine-2-one]

From US12264134B2 (Merck Sharp & Dohme LLC, priority 2018, dated 2025)
